In PMC3124071 (Journal of medicinal chemistry, 2011):

Assays:
[1] = urate-lowering therapy ref 6; cited from earlier work
[2] = oral; 7 (100 mg/kg) versus 4 (300 mg/day) or 5 (1000 mg/day) ref 22; cited from earlier work
[3] = target: T1, human uric acid transporter 1 (hURAT1; SLC22A12) (Homo sapiens, UniProt Q96S37); experiment: 14C-uric acid uptake inhibition in Xenopus oocytes expressing hURAT1; format: cell-based; details: for 14C-urate transport inhibition (in words): test compound at 50 μM
T1 sequence (Q96S37 1-553): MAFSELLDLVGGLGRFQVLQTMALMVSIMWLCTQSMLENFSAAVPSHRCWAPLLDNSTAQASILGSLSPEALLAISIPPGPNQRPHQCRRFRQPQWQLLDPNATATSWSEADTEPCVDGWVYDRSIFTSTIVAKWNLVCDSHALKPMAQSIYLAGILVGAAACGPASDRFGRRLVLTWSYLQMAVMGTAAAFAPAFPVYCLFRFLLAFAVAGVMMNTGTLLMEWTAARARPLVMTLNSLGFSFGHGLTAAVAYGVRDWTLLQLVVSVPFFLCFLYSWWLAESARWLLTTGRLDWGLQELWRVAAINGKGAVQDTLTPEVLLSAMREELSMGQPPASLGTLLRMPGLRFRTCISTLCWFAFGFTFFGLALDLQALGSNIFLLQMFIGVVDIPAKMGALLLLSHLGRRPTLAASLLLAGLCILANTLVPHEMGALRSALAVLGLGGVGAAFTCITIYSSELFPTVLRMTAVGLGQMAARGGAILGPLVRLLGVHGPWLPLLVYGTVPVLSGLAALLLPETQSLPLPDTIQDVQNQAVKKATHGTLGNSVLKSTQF

Row | Structure (SMILES) | IC50 [3] [nM] | 14C-urate transport inhibition (in words) [3] | other results
1 | Oc1ncnc2[nH]ncc12 [Compound 3, allopurinol] |  |  | patients able to meet treatment goals [1]: about 40%
2 | CCc1oc2ccccc2c1C(=O)c1cc(Br)c(O)c(Br)c1 [Compound 7, (3,5-dibromo-4-hydroxyphenyl)(2-ethylbenzofuran-3-yl)methanone] |  |  | physiological effect (lowers urate level) compared with 4 and 5 [2]: greater physiological effect
3 | CCc1oc2ccccc2c1C(=O)c1ccc(OC)cc1 [Compound 12, (2-ethylbenzofuran-3-yl)(4-methoxyphenyl)methanone] | > 50000 | weak-to-no | 
4 | CCc1oc2ccc(OC)cc2c1C(=O)c1ccc(OC)cc1 [Compound 14, (2-ethyl-5-methoxybenzofuran-3-yl)(4-methoxyphenyl)methanone] |  | weak inhibition | 
5 | CCc1oc2c(OC)cccc2c1C(=O)c1ccc(OC)cc1 [Compound 19, (2-ethyl-7-methoxybenzofuran-3-yl)(4-methoxyphenyl)methanone] |  | weak inhibition | 
6 | CCc1oc2cc(OC)c(Br)cc2c1C(=O)c1cc(Br)c(O)c(Br)c1 [Compound 46, (5-bromo-2-ethyl-6-methoxybenzofuran-3-yl)(3,5-dibromo-4-hydroxyphenyl)methanone] | 1650 ± 120 |  | inhibition at 50 µM ([3]; read-out: % Inhibition @ 50 μM): 98.1 ± 0.2%
